Assay results from US20220026439A1, “PARTICLE BASED SMALL MOLECULE-PROTEIN COMPLEX TRAP” (priority 2018, published 2022).
Read-outs that look alike come from different tables or passages of the source. Values belong to the compound of their own block, whether it stands above or below them.

Legend:
[1] = molecular target: FKBP12 / PPP3CA (Homo sapiens, UniProt P62942); experiment: ViroTrap (gag-FKBP12 bait) with LC-MS/MS: FK506-induced binding of PPP3CA (calcineurin catalytic subunit) to FKBP12; type: cell-based; conditions: HEK293T cells
[2] = molecular target: T1, CRBN / ASS1 (Homo sapiens, UniProt Q96SW2); experiment: ViroTrap (gag-CRBN bait) with LC-MS/MS: molecular glue-induced recruitment of endogenous ASS1 to CRBN in virus-like particles; type: cell-based
T1 construct: expressed in transfected cells; host or cells: HEK293T
Text: In this study we evaluated the use of ViroTrap to identify molecular glue-induced endogenous (neo)substrates of CRBN in HEK293T cells. For this purpose, we used a previously described method known as ViroTrap (Eyckerman, et al. “Trapping mammalian protein complexes in viral particles,” Nature Communications 7: 11416 (2016); Titeca, et al. “Analyzing trapped protein complexes by Virotrap and SFINX.” Nature Protocols 12.5 (2017): 881). With this method, CRBN is expressed as a fusion protein with the viral protein HIV-GAG. HIV-GAG, when expressed in cells, such as HEK293T, is capable of triggering the formation of virus-like particles that bud off the cells. In the particle, the HIV-GAG protein is oriented towards the center of the particle. […] In the event the GAG-CRBN fusion interacts with proteins inside the cells, such proteins are dragged/trapped along with GAG-CRBN into the virus-like particles. In this manner, endogenous proteins that interact with CRBN, in presence or absence of a CRBN-ligand, can be identified. This is achieved by lysis of the particle and a standard mass-spectrometry analysis of tryptic digest of the sample. Subtractive analysis will then identify proteins that are specifically associated with the particle in response to a CRBN-ligand such as a molecular glue. […] Twenty-four hours after compound addition, virus-like particles (VLPs) were isolated from the cell supernatant using anti-Flag coated magnetobeads. After elution from the beads using Flag peptide, purified VLPs were lysed, and the protein content was digested overnight with trypsin. The peptide samples were analyzed through LC-MS/MS and label-free quantification data (LFQ intensities) from triplicate samples was processed using the MaxQuant software package and a volcano plot showing p-value (resulting from a two-sided t-test corrected for multiple testing; FDR 0.05%) versus LFQ intensity fold change (FIG. 1A-C) was generated with the Perseus tool.

[3] = molecular target: PPP3CA, a calcineurin catalytic subunit, endogenous (UniProt Q08209); experiment: ViroTrap: gag-FKBP12 VLPs from HEK293T cells, LC-MS/MS label-free quantification; FK506 1 µM versus DMSO control

T1 sequence (Q96SW2 whole entry, species assumed): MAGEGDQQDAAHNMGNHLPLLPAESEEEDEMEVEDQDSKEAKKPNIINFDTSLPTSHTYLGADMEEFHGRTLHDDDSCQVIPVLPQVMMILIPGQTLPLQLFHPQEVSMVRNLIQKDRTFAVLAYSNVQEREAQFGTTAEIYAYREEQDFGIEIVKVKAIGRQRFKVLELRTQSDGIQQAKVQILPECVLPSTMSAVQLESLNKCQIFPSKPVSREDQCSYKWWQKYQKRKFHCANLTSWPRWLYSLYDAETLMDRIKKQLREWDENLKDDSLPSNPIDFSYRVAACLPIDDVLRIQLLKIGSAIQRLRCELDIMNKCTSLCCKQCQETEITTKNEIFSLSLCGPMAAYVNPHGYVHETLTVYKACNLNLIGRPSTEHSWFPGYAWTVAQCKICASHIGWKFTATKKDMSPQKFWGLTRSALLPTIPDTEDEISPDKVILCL
T1 sequence (P00966 whole entry partner, species assumed): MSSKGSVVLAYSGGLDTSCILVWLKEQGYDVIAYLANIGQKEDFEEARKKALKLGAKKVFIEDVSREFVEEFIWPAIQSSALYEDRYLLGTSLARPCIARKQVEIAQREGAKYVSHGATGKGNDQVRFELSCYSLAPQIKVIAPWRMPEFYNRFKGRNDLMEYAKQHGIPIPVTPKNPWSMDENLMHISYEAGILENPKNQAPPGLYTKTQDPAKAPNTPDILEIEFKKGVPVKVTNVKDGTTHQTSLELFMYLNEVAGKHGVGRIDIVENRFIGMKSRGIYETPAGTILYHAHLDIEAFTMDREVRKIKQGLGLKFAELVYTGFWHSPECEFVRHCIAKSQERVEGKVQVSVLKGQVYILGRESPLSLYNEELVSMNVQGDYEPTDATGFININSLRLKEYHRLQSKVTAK
T1 sequence (Q16531 2-1140 partner limits assumed, species assumed): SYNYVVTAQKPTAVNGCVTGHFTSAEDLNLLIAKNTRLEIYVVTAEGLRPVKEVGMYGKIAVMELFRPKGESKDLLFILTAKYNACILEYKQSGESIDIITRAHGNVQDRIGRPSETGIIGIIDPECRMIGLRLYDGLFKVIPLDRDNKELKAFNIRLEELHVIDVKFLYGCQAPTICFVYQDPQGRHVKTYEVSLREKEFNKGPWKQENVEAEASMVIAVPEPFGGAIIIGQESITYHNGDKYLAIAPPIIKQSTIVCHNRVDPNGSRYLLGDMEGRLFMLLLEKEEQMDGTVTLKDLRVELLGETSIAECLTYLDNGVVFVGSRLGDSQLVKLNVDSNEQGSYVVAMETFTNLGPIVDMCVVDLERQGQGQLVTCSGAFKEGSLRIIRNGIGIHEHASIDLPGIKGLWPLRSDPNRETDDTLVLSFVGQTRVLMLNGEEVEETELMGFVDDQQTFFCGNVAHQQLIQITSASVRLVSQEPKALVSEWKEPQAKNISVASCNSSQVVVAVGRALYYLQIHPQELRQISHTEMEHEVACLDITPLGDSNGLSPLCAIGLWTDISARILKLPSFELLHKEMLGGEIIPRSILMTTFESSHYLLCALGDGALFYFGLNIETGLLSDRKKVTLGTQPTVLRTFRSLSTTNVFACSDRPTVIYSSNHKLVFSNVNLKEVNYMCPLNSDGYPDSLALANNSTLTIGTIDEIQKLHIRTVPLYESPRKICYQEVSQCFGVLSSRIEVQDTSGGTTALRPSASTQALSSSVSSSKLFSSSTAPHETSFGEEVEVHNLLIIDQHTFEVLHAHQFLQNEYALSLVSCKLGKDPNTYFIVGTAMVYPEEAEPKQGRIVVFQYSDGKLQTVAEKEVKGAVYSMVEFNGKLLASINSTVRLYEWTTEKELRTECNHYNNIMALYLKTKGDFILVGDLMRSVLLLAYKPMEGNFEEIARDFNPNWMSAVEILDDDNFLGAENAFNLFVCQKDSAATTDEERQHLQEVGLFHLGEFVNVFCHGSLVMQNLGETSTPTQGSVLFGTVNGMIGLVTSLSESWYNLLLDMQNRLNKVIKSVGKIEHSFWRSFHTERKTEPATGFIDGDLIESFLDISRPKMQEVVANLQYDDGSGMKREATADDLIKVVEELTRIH
Sequence of FKBP12 / PPP3CA (P62942 whole entry, species assumed, other chains not shown): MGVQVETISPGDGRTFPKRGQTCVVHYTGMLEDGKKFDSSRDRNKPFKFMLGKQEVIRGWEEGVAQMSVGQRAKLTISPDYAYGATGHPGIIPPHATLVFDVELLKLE
Sequence of FKBP12 / PPP3CA (P63098 2-170 partner limits assumed, species assumed, other chains not shown): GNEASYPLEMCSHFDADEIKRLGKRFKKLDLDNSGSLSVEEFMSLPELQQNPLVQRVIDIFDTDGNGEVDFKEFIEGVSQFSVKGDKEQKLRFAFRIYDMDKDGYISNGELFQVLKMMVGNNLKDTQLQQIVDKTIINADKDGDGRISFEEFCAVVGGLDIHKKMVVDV
Sequence of gag-FKBP12 fusion protein (P62942 whole entry, the tested form may be a part): as the sequence (P62942 whole entry, species assumed, other chains not shown) above

- FK506-induced enrichment of PPP3CA in gag-FKBP12 virus-like particles (result in words) ([1]; FK506 versus DMSO): enriched for the presence of PPP3CA
- Fold change (LFQ intensity, compound versus DMSO) of target protein PPP3CA ([1]; bait FKBP12, 1 μM compound): 9.71
Compound: C=CC[C@@H]1/C=C(\C)C[C@H](C)C[C@H](OC)[C@H]2O[C@@](O)(C(=O)C(=O)N3CCCC[C@H]3C(=O)O[C@H](/C(C)=C/[C@@H]3CC[C@@H](O)[C@H](OC)C3)[C@H](C)[C@@H](O)CC1=O)[C@H](C)C[C@@H]2OC [FK506, tacrolimus]

Compound: O=C1CC[C@H](N2Cc3c(OCc4ccc(CN5CCOCC5)cc4)cccc3C2=O)C(=O)N1 [CC-220]
- Compound-induced association of endogenous ASS1 with CRBN (result in words) ([2]; HEK293T cells, 10 μM lenalidomide, 10 μM pomalidomide, 1 μM CC-220, versus DMSO): induced the association of endogenous ASS1 with CRBN
- Fold change (LFQ intensity, compound versus DMSO) of target protein ASS1 ([2]; bait CRBN, 1 μM compound, HEK293T cells, VLPs isolated 24 h after compound addition, triplicate samples): 3.31

Compound: gag-FKBP12 fusion protein (from UniProt P62942 1-108)
- Fold change (LFQ intensity, compound versus DMSO) [3]: 9.71 fold

- Fold change (LFQ intensity, compound versus DMSO) of target protein ASS1 [2]: 2.01
Compound: Nc1cccc2c1C(=O)N(C1CCC(=O)NC1=O)C2=O (stereo not shown) [Pomalidomide, pomalidomide]
- Compound-induced association of endogenous ASS1 with CRBN (result in words) [2]: induced the association of endogenous ASS1 with CRBN
